Source: PMC11603075 (Communications Biology, 2024)

Assays:
KDM4E = biological target: T1, KDM4E (Homo sapiens, UniProt B2RXH2); experiment: MALDI–TOF MS time course / specific activity, KDM4E; type: biochemical
T1 construct: KDM4E1–337; made in house; host or cells: E. coli
T1 sequence (B2RXH2 1-337): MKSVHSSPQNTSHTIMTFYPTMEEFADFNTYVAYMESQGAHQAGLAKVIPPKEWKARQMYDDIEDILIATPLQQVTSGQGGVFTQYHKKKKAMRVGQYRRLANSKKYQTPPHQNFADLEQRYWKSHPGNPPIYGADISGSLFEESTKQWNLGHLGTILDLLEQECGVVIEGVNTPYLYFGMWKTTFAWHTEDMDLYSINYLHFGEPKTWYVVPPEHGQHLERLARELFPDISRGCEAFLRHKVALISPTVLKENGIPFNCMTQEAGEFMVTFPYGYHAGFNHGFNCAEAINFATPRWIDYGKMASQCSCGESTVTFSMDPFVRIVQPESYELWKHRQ
Protocol: (§1) MS-based screening assays with peptides and calf thymus histones were as reported; see Supplementary Table 6 for conditions. Time course assays were based on reported procedures. In brief, equal volumes of the enzyme and substrate solutions were combined to initiate the reaction; 10 µL of 2% (v/v) formic acid (HCOOH) in ddH2O or 100% methanol was added to 10 µL of the reaction mixture to quench reactions at different time points. Unless otherwise stated, time course assays were carried out in triplicate. In some cases, LC–MS was used instead of MALDI-TOF MS to avoid a MALDI matrix induced artefact with the hydroxylated product (Supplementary Fig. 16).
Data collected from time course assay(s) were used to plot the % conversion vs time (min) using GraphPad Prism5 version 5.04; the resultant slopes were used to fit a line with linear regression to the first-order region of the reaction. The resultant gradient was then converted from % product formation min^−1 to amount of peptide converted (demethylation and / or hydroxylation) in µM.
Supplementary Figure 4 Activity of KDM5C (black circles) with H2a(1–20)R3me2a is greater than that of KDM4E (white circles). (a) A MALDI–TOF MS time course graph of product formation (%) of KDM4E ( −14 Da/+16 Da) and KDM5C (−14 Da) reaction with H2a(1–20)R3me2a versus time (minutes). ~60% substrate depletion was reached after 105 minutes with KDM4E; ~95% of H2a(1–20)R3me2a was demethylated after 1 05 minut e s wit h K DM5 C. (b ) Comparison of specific activities of KDM4E with H2a(1–20)R3me2a (0.15 […]
bars; +/- SD; n = 3 (independent assays). See Supplementary Table 6 for assay condit ions.
(also on this page, place not known: 105 minutes KDM5C. (b) H2a(1 –20)R3me2a with conditions. specific activity (pmol·min-1·μM-1))
(1 picture or pasted object on this page, not shown here)
(§2) [ E nz ym e] [Peptide] [2OG] [Ascorbate] [(NH4)2F e(S O4)2] [TCEP] Buffer pH7.5 Enzyme Cognate substrate (mM) (mM) (mM) (mM) (mM) (mM) [HE PE S]
(§3) Supplementary Table 6 Summary of MS assay conditions for substrate screening. These conditions enabled efficient turnover of established substrates. Reactions were carried out at 37 °C unless otherwise st ated. […]

KDM5A = experiment: MALDI–TOF MS demethylation/+16 Da assay, KDM5A; type: biochemical, human; settings: 90 min
Excerpt: Fig. 2 Histone H2a fragments are KDM5 and KDM4 substrates. […] See Supplementary Table 6 and Supplementary Fig. 2 for assay conditions and quantification, respectively. […] 0-minute MS spectrum in black, 60/90-minute spectrum in red.
as §1, with “16). […]” for “16).”
Supplementary Figure 2 Histone H2a peptide fragments are substrates of KDM4s and KDM5s.
2 for representative corresponding MALDI–TOF MS traces. Bar graphs comparing % product format ion (+16 Da and demethylation) of H2a(1–20)R3me2a by (a) K DM5 A–D (after 90 minutes) and (b) KDM4A–E ( a ft er 60 minutes), analysed by MALDI– TOF MS. n = (a) 2, (b) 3 (independent assays). See Supplementary Table 6 for assay condit ions. See Figure S13 A 1 for a positive control.
(also on this page, place not known: formation KDM5A–D (after MALDI–TOF conditions. Figure S13A1 KDM4A KDM4B KDM4C KDM4D KDM4E 80% product formation KDM5A KDM5B KDM5C KDM5D % product formation) […]
as §2, §3

## Ac - SGR [ me 2a ] GKQ GGKAR AKAKT R SSR [H2a(1–20)R3me2a, H2a(1–20)R3me2a without a biotin tag]
KDM4E; 0 min, replicate 1
  product formation (−14 Da/+16 Da): 0%
KDM4E; 0 min, replicate 2
  product formation (−14 Da/+16 Da): 0%
KDM4E; 0 min, replicate 3
  product formation (−14 Da/+16 Da): 0%
KDM4E; 5 min, replicate 1
  product formation (−14 Da/+16 Da): 3.341%
KDM4E; 5 min, replicate 2
  product formation (−14 Da/+16 Da): 5.787%
KDM4E; 5 min, replicate 3
  product formation (−14 Da/+16 Da): -0.8025%
KDM4E; 15 min, replicate 1
  product formation (−14 Da/+16 Da): -0.9416%
KDM4E; 15 min, replicate 2
  product formation (−14 Da/+16 Da): 5.091%
KDM4E; 15 min, replicate 3
  product formation (−14 Da/+16 Da): -0.7355%
KDM4E; 30 min, replicate 1
  product formation (−14 Da/+16 Da): 22.6189%
KDM4E; 30 min, replicate 2
  product formation (−14 Da/+16 Da): 32.3989%
KDM4E; 30 min, replicate 3
  product formation (−14 Da/+16 Da): 20.757%
KDM4E; 45 min, replicate 1
  product formation (−14 Da/+16 Da): 29.5376%
KDM4E; 45 min, replicate 2
  product formation (−14 Da/+16 Da): 33.3686%
KDM4E; 45 min, replicate 3
  product formation (−14 Da/+16 Da): 28.8806%
KDM4E; 60 min, replicate 1
  product formation (−14 Da/+16 Da): 41.1416%
KDM4E; 60 min, replicate 2
  product formation (−14 Da/+16 Da): 35.7562%
KDM4E; 60 min, replicate 3
  product formation (−14 Da/+16 Da): 37.6375%
KDM4E; 75 min, replicate 1
  product formation (−14 Da/+16 Da): 48.3844%
KDM4E; 75 min, replicate 2
  product formation (−14 Da/+16 Da): 47.469%
KDM4E; 75 min, replicate 3
  product formation (−14 Da/+16 Da): 46.9153%
KDM4E; 90 min, replicate 1
  product formation (−14 Da/+16 Da): 60.0026%
KDM4E; 90 min, replicate 2
  product formation (−14 Da/+16 Da): 49.7939%
KDM4E; 90 min, replicate 3
  product formation (−14 Da/+16 Da): 54.7629%
KDM4E; 105 min, replicate 1
  product formation (−14 Da/+16 Da): 62.5982%
KDM4E; 105 min, replicate 2
  product formation (−14 Da/+16 Da): 62.265%
KDM4E; 105 min, replicate 3
  product formation (−14 Da/+16 Da): 60.6438%
KDM4E; KDM4E, 105 minutes
  substrate depletion: ~ 60%
KDM4E; KDM4E, mean of n = 3, SD 0.010
  specific activity: 0.15 pmol min^−1 µM^−1
KDM4E; KDM4E, repeat 1
  specific activity: 0.1634 pmol·min-1·μM-1
KDM4E; KDM4E, repeat 2
  specific activity: 0.141 pmol·min-1·μM-1
KDM4E; KDM4E, repeat 3
  specific activity: 0.1586 pmol·min-1·μM-1
KDM5A; replicate 1
  +16 Da (% product formation): 0%
  demethylation (% product formation): 52.427%
KDM5A; replicate 2
  +16 Da (% product formation): 0%
  demethylation (% product formation): 53.348%
